The source of these data is PubChem BioAssay AID2060501 (Molecular Pharmacology Branch, DTP, NCI, 2025).
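Note: spheroids exposed to compounds for 7 days before readout; percent of vehicle DMSO control viability with 100% = untreated-like growth.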

One assay relates to 282377-053-R-J1-PDC complex spheroids, viability. Description: Anticancer human tumor 282377-053-R-J1-PDC patient-derived colon adenocarcinoma cell line growth inhibition [GQUAD]. Conditions: second compound 1 µM; first compound 0.316 µM; hits give low values. An outline of the steps: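 Multi-cell-type spheroids of tumor cells with HUVEC and mesenchymal stem cells, treated with drug combinations. Concentrations descend in half-log steps from near clinical Cmax, or from 10 microM where Cmax is unknown; viability read-out.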
A word on the viability, T/C: it is the result in the treated group divided by that in the control group, in per cent. Turning to `COc1ncnc(C2CC2)c1-c1ncc2cnn(Cc3ccc(-c4nc(C(F)(F)F)cn4C(C)C)cc3)c2n1` + Cc1[nH]c2ccc(F)cc2c1-c1nc2c3cccnc3c3ncccc3c2[nH]1, the viability, T/C is 113%.
On to `CC1COCCN1c1cc(-c2ccnn2C)c2ccnc(-c3ccn[nH]3)c2n1` (stereo unspecified) + Cc1cnc(CNC(=O)c2c(=O)c3ccc(N4CCCN(C)CC4)nc3n3c2sc2ccccc23)cn1, for which the viability, T/C is 26.8%.
The same measure, in the same setting: as for `CC1COCCN1c1cc(C2(S(C)(=N)=O)CC2)nc(-c2ccnc3[nH]ccc23)n1` (stereo unspecified) + Cc1cnc(CNC(=O)c2c(=O)c3ccc(N4CCCN(C)CC4)nc3n3c2sc2ccccc23)cn1, the figure is 70.9%.
Same read-out and setting: the same measure for `COc1ccc([C@@H](O)c2cc(-c3ncnc4cc(N5CCOCC5)ccc34)c(F)cc2Cl)nn1` + Cc1cnc(CNC(=O)c2c(=O)c3ccc(N4CCCN(C)CC4)nc3n3c2sc2ccccc23)cn1: 55.5%.

The assay is the same for the next values; noted with them: second compound 1 µM; first compound 1 µM; hits give low values.
Turning to `C=CCn1c(=O)c2cnc(Nc3ccc(N4CCN(C)CC4)cc3)nc2n1-c1cccc(C(C)(C)O)n1` + Cc1[nH]c2ccc(F)cc2c1-c1nc2c3cccnc3c3ncccc3c2[nH]1, the viability, T/C was 59.5%.
Regarding `COc1ncnc(C2CC2)c1-c1ncc2cnn(Cc3ccc(-c4nc(C(F)(F)F)cn4C(C)C)cc3)c2n1` + Cc1[nH]c2ccc(F)cc2c1-c1nc2c3cccnc3c3ncccc3c2[nH]1, the viability, T/C was 115%.
Same read-out and setting: the same measure for `CC1COCCN1c1cc(-c2ccnn2C)c2ccnc(-c3ccn[nH]3)c2n1` (stereo unspecified) + Cc1cnc(CNC(=O)c2c(=O)c3ccc(N4CCCN(C)CC4)nc3n3c2sc2ccccc23)cn1: 26.2%; for `CC1COCCN1c1cc(C2(S(C)(=N)=O)CC2)nc(-c2ccnc3[nH]ccc23)n1` (stereo unspecified) + Cc1cnc(CNC(=O)c2c(=O)c3ccc(N4CCCN(C)CC4)nc3n3c2sc2ccccc23)cn1: 61%.
In the case of `COc1ccc([C@@H](O)c2cc(-c3ncnc4cc(N5CCOCC5)ccc34)c(F)cc2Cl)nn1` + Cc1cnc(CNC(=O)c2c(=O)c3ccc(N4CCCN(C)CC4)nc3n3c2sc2ccccc23)cn1, the viability, T/C is 42%.

The same assay, now with this note: second compound 1 µM; first compound 3.16 µM; hits give low values.
As for `C=CCn1c(=O)c2cnc(Nc3ccc(N4CCN(C)CC4)cc3)nc2n1-c1cccc(C(C)(C)O)n1` + Cc1[nH]c2ccc(F)cc2c1-c1nc2c3cccnc3c3ncccc3c2[nH]1, the viability, T/C was 44.3%.
Turning to `COc1ncnc(C2CC2)c1-c1ncc2cnn(Cc3ccc(-c4nc(C(F)(F)F)cn4C(C)C)cc3)c2n1` + Cc1[nH]c2ccc(F)cc2c1-c1nc2c3cccnc3c3ncccc3c2[nH]1, the viability, T/C was 89.5%.
Still for that read-out and setting: as for `CC1COCCN1c1cc(-c2ccnn2C)c2ccnc(-c3ccn[nH]3)c2n1` (stereo unspecified) + Cc1cnc(CNC(=O)c2c(=O)c3ccc(N4CCCN(C)CC4)nc3n3c2sc2ccccc23)cn1, the figure is 23.5%; as for `CC1COCCN1c1cc(C2(S(C)(=N)=O)CC2)nc(-c2ccnc3[nH]ccc23)n1` (stereo unspecified) + Cc1cnc(CNC(=O)c2c(=O)c3ccc(N4CCCN(C)CC4)nc3n3c2sc2ccccc23)cn1, 55.6%; as for `COc1ccc([C@@H](O)c2cc(-c3ncnc4cc(N5CCOCC5)ccc34)c(F)cc2Cl)nn1` + Cc1cnc(CNC(=O)c2c(=O)c3ccc(N4CCCN(C)CC4)nc3n3c2sc2ccccc23)cn1, 41.3%.

The same assay, now with this note: second compound 1 µM; first compound 10 µM; hits give low values.
`C=CCn1c(=O)c2cnc(Nc3ccc(N4CCN(C)CC4)cc3)nc2n1-c1cccc(C(C)(C)O)n1` + Cc1[nH]c2ccc(F)cc2c1-c1nc2c3cccnc3c3ncccc3c2[nH]1: the viability, T/C was 11%.
On the same count and under the same terms, as for `COc1ncnc(C2CC2)c1-c1ncc2cnn(Cc3ccc(-c4nc(C(F)(F)F)cn4C(C)C)cc3)c2n1` + Cc1[nH]c2ccc(F)cc2c1-c1nc2c3cccnc3c3ncccc3c2[nH]1, the figure is 6.2%; as for `CC1COCCN1c1cc(-c2ccnn2C)c2ccnc(-c3ccn[nH]3)c2n1` (stereo unspecified) + Cc1cnc(CNC(=O)c2c(=O)c3ccc(N4CCCN(C)CC4)nc3n3c2sc2ccccc23)cn1, 16.3%.
The same measure, in the same setting: as for `CC1COCCN1c1cc(C2(S(C)(=N)=O)CC2)nc(-c2ccnc3[nH]ccc23)n1` (stereo unspecified) + Cc1cnc(CNC(=O)c2c(=O)c3ccc(N4CCCN(C)CC4)nc3n3c2sc2ccccc23)cn1, the figure is 30%; as for `COc1ccc([C@@H](O)c2cc(-c3ncnc4cc(N5CCOCC5)ccc34)c(F)cc2Cl)nn1` + Cc1cnc(CNC(=O)c2c(=O)c3ccc(N4CCCN(C)CC4)nc3n3c2sc2ccccc23)cn1, 37.3%.

The assay is the same for the next values; noted with them: second compound 3.16 µM; first compound 0.0316 µM; hits give low values.
For `C=CCn1c(=O)c2cnc(Nc3ccc(N4CCN(C)CC4)cc3)nc2n1-c1cccc(C(C)(C)O)n1` + Cc1[nH]c2ccc(F)cc2c1-c1nc2c3cccnc3c3ncccc3c2[nH]1, the viability, T/C was 50.3%.
Turning to `COc1ncnc(C2CC2)c1-c1ncc2cnn(Cc3ccc(-c4nc(C(F)(F)F)cn4C(C)C)cc3)c2n1` + Cc1[nH]c2ccc(F)cc2c1-c1nc2c3cccnc3c3ncccc3c2[nH]1, the viability, T/C is 85.5%.
Same read-out and setting: as for `CC1COCCN1c1cc(-c2ccnn2C)c2ccnc(-c3ccn[nH]3)c2n1` (stereo unspecified) + Cc1cnc(CNC(=O)c2c(=O)c3ccc(N4CCCN(C)CC4)nc3n3c2sc2ccccc23)cn1, the figure is 35.4%.
The same measure, in the same setting: as for `CC1COCCN1c1cc(C2(S(C)(=N)=O)CC2)nc(-c2ccnc3[nH]ccc23)n1` (stereo unspecified) + Cc1cnc(CNC(=O)c2c(=O)c3ccc(N4CCCN(C)CC4)nc3n3c2sc2ccccc23)cn1, the figure is 49.1%; as for `COc1ccc([C@@H](O)c2cc(-c3ncnc4cc(N5CCOCC5)ccc34)c(F)cc2Cl)nn1` + Cc1cnc(CNC(=O)c2c(=O)c3ccc(N4CCCN(C)CC4)nc3n3c2sc2ccccc23)cn1, 56.3%.

The assay is the same for the next values; noted with them: second compound 3.16 µM; first compound 0.1 µM; hits give low values.
On to `C=CCn1c(=O)c2cnc(Nc3ccc(N4CCN(C)CC4)cc3)nc2n1-c1cccc(C(C)(C)O)n1` + Cc1[nH]c2ccc(F)cc2c1-c1nc2c3cccnc3c3ncccc3c2[nH]1, for which the viability, T/C is 49.1%.
`COc1ncnc(C2CC2)c1-c1ncc2cnn(Cc3ccc(-c4nc(C(F)(F)F)cn4C(C)C)cc3)c2n1` + Cc1[nH]c2ccc(F)cc2c1-c1nc2c3cccnc3c3ncccc3c2[nH]1: the viability, T/C was 79.5%.
